Test results reported in patent US6750244B2, “Compounds active at a novel site on receptor-operated calcium channels useful for treatment of neurological disorders and diseases” (NPS Pharmaceuticals, Inc., priority 1993, dated 2004).
Values joined by “and” are separate entries in the source; they are usually repeats but may differ in a detail not shown here. Equal entries are not always repeated. Structures can show the parent of a compound that is named as a salt. Where two headings read alike, the source gives them in different places.

Columns and labels:
NMDA receptor = test: Inhibition of NMDA/glycine-induced increases in intracellular calcium in cultured rat cerebellar granule cells (RCGC); assay type: cell-based; details: read-out: IC50 (μM) vs. NMDA
[1] = test system: mean arterial blood pressure; details: for no effect on mean arterial blood pressure / no (significant) cardiovascular activity at doses up to: i.v.
[2] = molecular target: NMDA receptor-ionophore complex (site labeled by [3H]MK-801); test: Inhibition of [3H]MK-801 binding in rat cortical/hippocampal washed membrane preparations; details: read-out: IC50 (μM) vs. [3H]MK-801, rat cortical/hippocampal washed membranes
L-type calcium channel = test system: T1, L-type calcium channel; test: Inhibition of KCl depolarization-induced increases in intracellular calcium in cultured rat cerebellar granule cells; assay type: cell-based; details: cultured rat cerebellar granule cells; read-out: L-type calcium channel: estimated IC50, KCl depolarization-induced increases in intracellular calcium
T1 construct: L-type calcium channel: estimated IC50, KCl depolarization-induced increases in intracellular calcium; other: cultured
Description: The ability of arylalkylamines to inhibit dihydropyridine-sensitive Ca^2+ channels was examined in cerebellar granule cells and a rat aortic smooth muscle cell line, A7r5 cells.

[3] = test system: central muscarinic cholinergic receptor; assay type: binding, rat
dopamine uptake site = molecular target: T2, dopamine uptake site (Cavia porcellus, UniProt H0WCX4); test: Dopamine uptake binding assay: [3H]WIN-35,428 binding to guinea pig striatal membranes
T2 construct: from tissue; host or cells: guinea pig striatal membranes (per the assay title)

[4] = molecular target: T3, norepinephrine uptake site (Rattus norvegicus, UniProt Q63380); test: Norepinephrine uptake binding assay: [3H]desipramine binding to rat cortical membranes
T3 construct: from tissue; host or cells: rat cortical membranes (per the assay title)

serotonin uptake site = molecular target: T4, serotonin uptake site (Rattus norvegicus, UniProt P31652); test: Serotonin uptake binding assay: [3H]citalopram binding to rat forebrain membranes
T4 construct: from tissue; host or cells: rat forebrain membranes (per the assay title)

sound-induced seizures = test: Sound-induced seizures in Frings mice (reflex epilepsy); assay type: in vivo; details: for ED50: Mus musculus, ip, Frings mice; for IC50, prevention of sound-induced seizures: intracerebroventricular (i.c.v.) injection
in vivo = details: Frings, mouse, in vivo, ip
Protocol: (§1) In this assay, Frings and CF1 mice were injected with test compound and placed on a knurled rod which rotated at a speed of 6 rpm. The ability of the mice to maintain equilibrium for long periods of time was determined; those mice that were unable to maintain equilibrium on the rotorod for 1 min in each of 3 trials were considered impaired.

behavior = test: Behavioral effects in conscious male NMRI mice
motor performance = test: Acute motor impairment (rotorod) in mice; details: Frings mice; for TD50, acute motor impairment: i.c.v. injection
Protocol: as §1

induction of LTP = test system: induction of LTP; set-up: species or system rat; details: slices superfused 30-60 min
[5] = NMDA/glycine-induced increases in intracellular calcium, cultured rat cerebellar granule cells

T2 sequence (H0WCX4 1-619): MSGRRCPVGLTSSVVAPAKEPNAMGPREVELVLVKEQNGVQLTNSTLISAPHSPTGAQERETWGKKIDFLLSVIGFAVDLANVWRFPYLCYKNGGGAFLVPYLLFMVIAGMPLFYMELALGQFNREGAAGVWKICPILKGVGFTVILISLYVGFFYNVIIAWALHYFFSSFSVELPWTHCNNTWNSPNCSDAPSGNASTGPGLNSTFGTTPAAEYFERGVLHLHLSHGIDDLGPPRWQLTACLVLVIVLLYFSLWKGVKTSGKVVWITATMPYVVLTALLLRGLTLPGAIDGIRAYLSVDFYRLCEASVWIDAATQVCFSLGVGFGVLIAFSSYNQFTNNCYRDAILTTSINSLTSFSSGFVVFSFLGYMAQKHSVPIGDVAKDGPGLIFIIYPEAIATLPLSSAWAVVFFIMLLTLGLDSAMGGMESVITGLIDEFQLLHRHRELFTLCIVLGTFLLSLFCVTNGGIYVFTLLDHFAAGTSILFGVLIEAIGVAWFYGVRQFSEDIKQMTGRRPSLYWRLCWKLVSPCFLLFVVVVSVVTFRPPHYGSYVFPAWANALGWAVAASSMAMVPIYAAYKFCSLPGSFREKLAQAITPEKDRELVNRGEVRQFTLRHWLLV
T3 sequence (Q63380 1-617): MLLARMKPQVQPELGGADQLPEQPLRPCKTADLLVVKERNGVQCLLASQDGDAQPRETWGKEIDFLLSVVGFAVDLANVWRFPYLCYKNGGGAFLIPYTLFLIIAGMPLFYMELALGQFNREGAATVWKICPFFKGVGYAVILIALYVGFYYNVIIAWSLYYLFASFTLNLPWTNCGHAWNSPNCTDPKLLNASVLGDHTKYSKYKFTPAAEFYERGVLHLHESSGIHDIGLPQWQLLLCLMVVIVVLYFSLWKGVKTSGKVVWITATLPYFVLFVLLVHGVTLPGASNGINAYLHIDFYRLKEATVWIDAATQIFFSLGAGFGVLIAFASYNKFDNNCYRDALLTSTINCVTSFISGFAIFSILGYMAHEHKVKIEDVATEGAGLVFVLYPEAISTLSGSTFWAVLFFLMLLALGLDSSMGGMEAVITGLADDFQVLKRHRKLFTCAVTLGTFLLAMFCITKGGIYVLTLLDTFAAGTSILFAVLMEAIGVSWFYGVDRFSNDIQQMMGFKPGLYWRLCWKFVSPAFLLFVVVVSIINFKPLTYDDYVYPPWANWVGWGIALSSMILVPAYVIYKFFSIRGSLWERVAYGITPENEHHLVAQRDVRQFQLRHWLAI
T4 sequence (P31652 whole entry): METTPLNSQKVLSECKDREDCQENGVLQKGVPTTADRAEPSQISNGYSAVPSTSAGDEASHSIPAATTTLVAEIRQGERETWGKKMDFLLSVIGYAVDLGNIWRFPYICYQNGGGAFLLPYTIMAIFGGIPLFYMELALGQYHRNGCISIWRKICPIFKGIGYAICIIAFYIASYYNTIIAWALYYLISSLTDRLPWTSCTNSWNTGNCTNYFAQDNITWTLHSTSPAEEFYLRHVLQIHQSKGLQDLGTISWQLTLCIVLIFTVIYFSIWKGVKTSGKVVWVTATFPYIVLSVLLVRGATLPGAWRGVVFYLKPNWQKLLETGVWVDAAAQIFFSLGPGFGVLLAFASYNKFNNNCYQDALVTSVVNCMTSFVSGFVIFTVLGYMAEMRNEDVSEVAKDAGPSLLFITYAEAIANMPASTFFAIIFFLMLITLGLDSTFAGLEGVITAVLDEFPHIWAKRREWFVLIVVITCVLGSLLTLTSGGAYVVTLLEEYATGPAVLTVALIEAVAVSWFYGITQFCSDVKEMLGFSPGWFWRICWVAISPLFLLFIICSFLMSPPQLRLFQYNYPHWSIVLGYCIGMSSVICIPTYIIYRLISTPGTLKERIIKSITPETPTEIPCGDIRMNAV

SMILES | IC50 (NMDA receptor; [5]) | IC50 [2] [µM] | ED50 (sound-induced seizures) [mg/kg] | TD50 (in vivo) [mg/kg] | other results
CCNCCCNCCCNCCCNC(=O)Cc1c[nH]c2ccc(F)cc12 [Compound 11] | 4 µM |  |  |  | Drop in Mean Arterial Blood Pressure ([1]; 1 mg/kg i.v., rats): 20 mm Hg at 1; Drop in Mean Arterial Blood Pressure: duration ([1]; 1 mg/kg i.v., rats): mg/kg i.v., 30 min; duration of the hypotensive effect ([1]; systemic administration in rats): approximately 30 min
N[C@H]1CCCC1C(c1cccc(F)c1)c1cccc(F)c1 (stereo partly shown) [Compound 63] | 0.093 µM | 0.245 |  |  | IC50 (L-type calcium channel): 1.9 µM; Central muscarinic cholinergic receptor: percent block of [3H]QNB binding ([3]; at 0.1 μM): 11% at; Central muscarinic cholinergic receptor: percent block of [3H]QNB binding ([3]; at 10 μM): 0.181% at; Monoamine uptake binding assays: dopamine uptake binding assay, percent block (dopamine uptake site; at 0.1 μM): 64% at; Monoamine uptake binding assays: dopamine uptake binding assay, percent block (dopamine uptake site; at 10 μM): 0.1^f98% at; Monoamine uptake binding assays: norepinephrine uptake binding assay, percent block ([4]; at 0.1 μM): 10^f7% at; Monoamine uptake binding assays: norepinephrine uptake binding assay, percent block ([4]; at 10 μM): 0.1^g76% at; Monoamine uptake binding assays: serotonin uptake binding assay, percent block (serotonin uptake site; at 0.1 μM): 10^g13% at; Monoamine uptake binding assays: serotonin uptake binding assay, percent block (serotonin uptake site; at 10 μM): 0.1^h85% at
NCCC(Oc1cccc(F)c1)c1cccc(F)c1 (stereo not shown) [Compound 119] | 0.115 µM | 0.087 | 7 | 26.3 | 
N[C@@H]1CCCC1C(c1cccc(F)c1)c1cccc(F)c1 (stereo partly shown) [Compound 64] | 0.309 µM | 0.851 |  |  | Central muscarinic cholinergic receptor: percent block of [3H]QNB binding ([3]; at 0.1 μM): 11% at; Central muscarinic cholinergic receptor: percent block of [3H]QNB binding ([3]; at 10 μM): 0.183% at; Monoamine uptake binding assays: dopamine uptake binding assay, percent block (dopamine uptake site; at 0.1 μM): 50% at; Monoamine uptake binding assays: dopamine uptake binding assay, percent block (dopamine uptake site; at 10 μM): 0.1^f99% at; Monoamine uptake binding assays: norepinephrine uptake binding assay, percent block ([4]; at 0.1 μM): 8% at; Monoamine uptake binding assays: norepinephrine uptake binding assay, percent block ([4]; at 10 μM): 0.1^g65% at; Monoamine uptake binding assays: serotonin uptake binding assay, percent block (serotonin uptake site; at 0.1 μM): 10^g29% at; Monoamine uptake binding assays: serotonin uptake binding assay, percent block (serotonin uptake site; at 10 μM): 0.1^h68% at
C[C@H](CN)C(c1cccc(F)c1)c1cccc(F)c1 [Compound 34, 3,3-bis(3-fluorophenyl)-2-methyl-1-propylamine] | 0.426 µM | 2.7 | 22 | 10 to 15 | Central muscarinic cholinergic receptor: percent block of [3H]QNB binding ([3]; at 0.1 μM): 25% at; Central muscarinic cholinergic receptor: percent block of [3H]QNB binding ([3]; at 10 μM): 0.199% at; Monoamine uptake binding assays: dopamine uptake binding assay, percent block (dopamine uptake site; at 0.1 μM): 60% at; Monoamine uptake binding assays: dopamine uptake binding assay, percent block (dopamine uptake site; at 10 μM): 0.1^f99% at; Monoamine uptake binding assays: norepinephrine uptake binding assay, percent block ([4]; at 0.1 μM): 10^f10% at; Monoamine uptake binding assays: norepinephrine uptake binding assay, percent block ([4]; at 10 μM): 0.1^g64% at; Monoamine uptake binding assays: serotonin uptake binding assay, percent block (serotonin uptake site; at 0.1 μM): 10^g12% at; Monoamine uptake binding assays: serotonin uptake binding assay, percent block (serotonin uptake site; at 10 μM): 0.1^h79% at; behavioral effects (behavior; 2 mg/kg i.p.): hyperthermia; behavioral effects (behavior; 4 mg/kg i.p.): no behavioral effects; behavioral effects (behavior; 8 mg/kg i.p.): excitation, increased reactivity to touch, and hypothermia; behavioral effects (behavior; 64 mg/kg i.p.): convulsions; behavioral effects (behavior; 16 and 32 mg/kg i.p.): excitation, Straub tail, tremor, jumping, stereotypies, hypothermia, and mydriasis; behavioral effects (behavior; 128 and 256 mg/kg i.p.): convulsions and death
C[C@@H](N)CC(c1cccc(F)c1)c1cccc(F)c1 [Compound 51, 3,3-bis(3-fluorophenyl)-1-methyl-1-propylamine] | 1.1 µM | 4.5 | 9.1 |  | TD50 (motor impairment) (motor performance; i.p.): 13.6 mg/kg
Cc1ccc(F)cc1C(CCN)c1cccc(F)c1 (stereo not shown) [Compound 57, 3-(3-fluorophenyl)-3-(3-fluoro-6-methylphenyl)-1-propylamine] | 0.028 µM | 0.063 | 1 | 6 to 8 | 
NC(CCCP(=O)(O)O)C(=O)O (stereo not shown) [AP5, reference compound] | 15 µM |  |  |  | induction of LTP (p<0.05) (induction of LTP): significantly blocked
NC(CCCCCP(=O)(O)O)C(=O)O (stereo not shown) [AP7, reference compound] |  |  |  |  | induction of LTP (p<0.05) (induction of LTP): significantly blocked
NCCC(Oc1cccc(Cl)c1)c1cccc(F)c1 (stereo not shown) [Compound 120] | 0.101 µM | 0.074 | 4.77 | 20 to 30 | 
NCCCOCCCCOCCCNC(=O)Cc1c[nH]c2ccc(F)cc12 [Compound 12] | 6 µM | 98 |  |  | IC50, prevention of sound-induced seizures (sound-induced seizures): 12.2 µg; TD50, acute motor impairment (motor performance): 30.2 µg; no effect on mean arterial blood pressure / no (significant) cardiovascular activity at doses up to ([1]; rats): ≤ 37.3 µmol/kg; no effect on mean arterial blood pressure / no (significant) cardiovascular activity at doses up to ([1]; rats, listed as Compounds 12): up to 37.3 μmoles/kg
NCCC(Oc1ccccc1F)c1cccc(F)c1 (stereo not shown) [Compound 122] | 0.209 µM | 0.342 | 4.7 | 15.3 | 
CC(C(O)c1ccc(O)cc1)N1CCC(Cc2ccccc2)CC1 (stereo not shown) [ifenprodil, reference compound] |  |  |  |  | induction of LTP (p<0.05) (induction of LTP): significantly blocked
NCCC1c2ccccc2CCc2ccccc21 [Compound 156, 5-(2-Aminoethyl)-5H-10,11-dihydrodibenzo[a,d]cycloheptene hydrochloride] | 0.069 µM |  | 5 | 17.4 | IC50 ([2]; hydrochloride): 0.09 µM and 0.081 µM
NCCCOCCCCOCCCNC(=O)Cc1cccc2ccccc12 [Compound 14] | 8.8 µM |  |  |  | IC50, prevention of sound-induced seizures (sound-induced seizures): 13.9 µg; TD50, acute motor impairment (motor performance): 30.8 µg
NCCC(c1cccc(Cl)c1)c1cccc(Cl)c1 [Compound 31, 3,3-bis(3-chlorophenyl)-1-propylamine] | 0.052 µM | 1.3 | 6 | 10 to 20 | 
CC(CN)C(c1cccc(F)c1)c1cccc(F)c1 (stereo not shown) [Compound 21, 3,3-bis(3-fluorophenyl)-2-methyl-1-propylamine] | 0.038 µM | 0.457 | 3.41 | 15.3 | 
NCCC(Oc1cccc(Cl)c1)c1cccc(Cl)c1 (stereo not shown) [Compound 149] | 0.085 µM | 0.15 |  |  | 
COc1ccccc1CC(=O)NC(CC(N)=O)C(=O)NCCCCCNCCCNCCCNC(=O)C(N)CCCNC(=N)N (stereo not shown) [Compound 5] | 0.102 µM | 15.2 |  |  | IC50 (NMDA receptor; TFA salt): 0.07 µM
NCCC(c1ccncc1)c1cccc(F)c1 (stereo not shown) [Compound 79] | 12.6 µM | 10.2 |  |  | 
CCC(NCCC(c1ccccc1)c1ccccc1)c1ccc(F)cc1 (stereo not shown) [Compound 165] | 0.337 µM | 171 |  |  | 
NCCC(Cc1ccccc1)c1ccccc1 (stereo not shown) [Compound 125] | 1.7 µM | 6.7 |  |  | 
NCCC(c1cc(F)cc(F)c1)c1cc(F)cc(F)c1 [Compound 95, 3,3-bis(3,5,difluorophenyl)-1-propylamine] | 0.311 µM | 3 |  |  | 
Fc1cccc(C(c2cccc(F)c2)C2CCCNC2)c1 (stereo not shown) [Compound 111] | 0.645 µM and 0.79 µM | 0.167 |  |  | 
